{"source": "patent US20230310441A1", "about": "“TREATMENT FOR SCHIZOPHRENIA” (TAKEDA PHARMACEUTICAL COMPANY, priority 2020, published 2023)", "key": {"[1]": {"assay": "Phase 2 crossover study: plasma pharmacokinetics in schizophrenia subjects", "type": "in vivo, human", "details": "for AUC(0-inf) / Cmax / Tmax: human, plasma, schizophrenia subjects; for Tmax: read-out: median tmax", "description": "On Day 1 of each treatment period, following study drug administration, and commencing at approximately 2 h post-dose, subjects underwent PD tests for a total of approximately 4 h. Blood samples were collected at defined times after dosing to assess the PK of Compound (I). After the last PK collection at 6 h post-dose, subjects left the clinic. On Day 14 of each Treatment Period, subjects took the second set of PD tests along with a single time point PK collection. Samples for PK were also collected on Day 49 and at the final visit of the second treatment period. PD testing were performed in 3 blocks, separated by 2 breaks. The first block comprised the Grip Effort Task, the Progressive Ratio Test, and the Brief Assessment of Cognition in Schizophrenia (BACS). The BACS is a reliable and sensitive test battery specifically designed to efficiently assesses important cognitive deficits in patients with schizophrenia; accordingly, the BACS is suited for repeated testing in a clinical trial setting (Keefe et al., 2004). […] The following domains of cognitive function found to be consistently impaired in schizophrenia were assessed in this study: verbal memory; working memory; motor function; attention and processing speed; verbal fluency; and executive function. A composite score was calculated from each of the subset scores and used as a single endpoint for the assessment.\nDosing involved participants drinking a single bottle of oral suspension, containing either Compound (I) (40 or 160 mg Compound (I) mixed with 70 mL Tween/MC vehicle) or placebo (70 mL of Tween/MC vehicle) (Table 11). Participants were instructed to drink the full contents of the bottle, which was then rinsed twice with 35 mL water, which participants also drank. The initial dose level selected was 40 mg, which was adjusted to 160 mg following a planned interim analysis of available PK and safety data from emerging first-in-human cohort data.\nThe PK set consisted of all subjects who received at least 1 dose of study drug and had at least 1 measurable plasma concentration.\nCompound (I) plasma concentrations were tabulated and summarized by descriptive statistics at each scheduled time point (mean, median, SD, percent coefficient of variation, minimum, and maximum) for each treatment and dose level. Individual subject plasma concentration data were listed.\nThe plasma PK parameters of Compound (I) were determined from the concentration-time profiles for all evaluable subjects. Actual sampling times, rather than scheduled sampling times, were used in all computations involving sampling times. The following PK parameters were calculated using non-compartmental analysis using Phoenix WinNonLin (version 6.3 or higher): area under the plasma concentration-time curve from time 0 to time t, area under the plasma concentration-time curve from time 0 to infinity (AUC∞), maximum observed plasma concentration (Cmax), time of first occurrence of Cmax (tmax), and terminal disposition phase half-life."}, "[2]": {"test_system": "endogenous dopamine release in the human brain", "assay": "[^11C]PHNO PET of endogenous dopamine release after d-AMPH challenge", "type": "in vivo", "details": "for ΔΔBPND Mean (SD), Ca / ΔΔBPND Mean (SD), GP / ΔΔBPND Mean (SD), Pu / ΔΔBPND Mean (SD), SN / ΔΔBPND Mean (SD), VSt: attenuation of d-AMPH effect", "description": "A T1-weighted magnetic resonance imaging (MRI) scan of the brain, performed at screening, was used to obtain anatomical information required for PET data analysis. Each subject underwent three [^11C]PHNO PET scans, one at baseline, the second approximately 3 h after a single oral dose of dex-amphetamine (d-AMPH, 0.5 mg/kg), and the third approximately 5 h after a single oral dose of Compound (I) (20 or 40 mg) and 3 h after an oral dose of dex-amphetamine (d-APMH) (0.5 mg/kg) (FIG. 2).\nSubjects were positioned in the PET scanner, after the insertion of a venous cannula in an antecubital or forearm vein. Soft padding and head restraints were used to minimize head movement during data acquisition. All dynamic [^11C]PHNO PET scans were acquired on Siemens Biograph 6 PET/CT scanners (Hi-Rez (PET/CT1) or a TruePoint with TrueV, Siemens Healthcare, Erlangen, Germany). All scans for a particular subject were acquired on the same scanner. A low-dose computed tomography (CT) scan was performed immediately before each PET study to estimate signal attenuation. Following an intravenous bolus injection of [^11C]PHNO, dynamic emission data were acquired for 90 min in 26 frames of increasing duration. The dynamic images were reconstructed using Fourier rebinning and a 2D filtered discrete inverse Fourier transform algorithm with 5 mm isotropic Gaussian filter on a 128×128 matrix with 2.6 zoom giving 2 mm isotropic voxels. Appropriate corrections were applied for attenuation, randoms, and scatter.\nThe primary set of ROIs defined were the ventral striatum (VSt), putamen (Pu) and cerebellum. […] The cerebellum was used as a reference region. An additional set of ROIs including the caudate nucleus (Ca), globus pallidus (GP) and substantia nigra (SN) was also evaluated.\nRegional TAC data extracted from the PET images were fitted using a basis function implementation of the SRTM (Gunn et al., 1997) to estimate the binding potential relative to the non-displaceable component (BPND) for each PET scan, as a measure of specific binding (Innis et al., 2007).\nReduction in [^11C]-PHNO specific binding following a d-AMPH challenge (ΔBPND^APMH) was quantified as percent change in postdose BPND (BPND^AMPH) from baseline BPND (BPND^BL):\nReduction in [^11C]-PHNO specific binding following a combination of Compound (I) and d-AMPH (ΔBPND^APMH+C1) was quantified as percent change in postdose BPND (BPND^AMPH+C1) from baseline BPND (BPND^BL):\nThe effect of Compound (I) (ΔΔBPND) was quantified as the percent change BPND in ΔBPND^APMH+C1 compared to ΔBPND^APMH:\nAll statistical comparisons were conducted using Student's t-tests for each ROI, using paired tests for within subject comparisons, and unpaired tests for between group comparisons."}, "[3]": {"assay": "Phase 2 crossover study: safety in subjects with stable schizophrenia", "type": "in vivo, human", "text": "The safety analysis set consisted of all subjects who were enrolled and received at least 1 dose of study drug. Safety measurements included adverse events, physical examinations, vital signs, clinical laboratory evaluations, ECGs, and C-SSRS."}}, "note": "Where two headings read alike, the source gives them in different places. Marks after values point to notes of the source that are not given here.", "data": [{"molecule": "C[C@H](NC(=O)Cn1nnc2ccccc2c1=O)c1ccc(OC(F)(F)F)cc1", "note": "[Compound (I), (S)-2-(4-oxobenzo[d][1,2,3]triazin-3(4H)-yl)-N-(1-(4-(trifluoromethoxy)phenyl)ethyl)acetamide]", "values": [{"measurement": "increase of mean AUC∞ for a 4-fold increase in dose", "setting": "[1]; 40 to 160 mg", "value": 3.5, "unit": "fold"}, {"measurement": "increase of mean Cmax for a 4-fold increase in dose", "setting": "[1]; 40 to 160 mg", "value": 2.8, "unit": "fold"}, {"measurement": "AUC(0-inf)", "setting": "[1]; single oral dose 40 mg", "value": 217, "unit": "µg·h/mL"}, {"measurement": "Cmax", "setting": "[1]; single oral dose 40 mg", "value": 0.549, "unit": "µg/mL"}, {"measurement": "Tmax", "setting": "[1]; single oral dose 40 mg", "value": 1.83, "unit": "h"}, {"measurement": "AUC(0-inf)", "setting": "[1]; single oral dose 160 mg", "value": 763, "unit": "µg·h/mL"}, {"measurement": "Cmax", "setting": "[1]; single oral dose 160 mg", "value": 1.52, "unit": "µg/mL"}, {"measurement": "Tmax", "setting": "[1]; single oral dose 160 mg", "value": 1.92, "unit": "h"}, {"measurement": "dose effect on ΔΔBPND, 40 mg group vs 20 mg group", "setting": "[2]; Pu and GP, one-tailed t-tests, p<0.01", "value": "significantly greater than that in the 20 mg group"}, {"measurement": "effect of pre-treatment on the d-AMPH challenge", "setting": "[2]; all ROI, significant in Pu, VSt and SN", "value": "attenuated the effect of the d-AMPH challenge in all ROI examined"}, {"measurement": "ΔΔBPND Mean (SD), Ca", "setting": "[2]; 20 mg single oral dose", "value": "−4.2 (59.2) %"}, {"measurement": "ΔΔBPND Mean (SD), GP", "setting": "[2]; 20 mg single oral dose", "value": "−3.2 (19.7) %"}, {"measurement": "ΔΔBPND Mean (SD), Pu", "setting": "[2]; 20 mg single oral dose", "value": "16.4 (11.3)* %"}, {"measurement": "ΔΔBPND Mean (SD), SN", "setting": "[2]; 20 mg single oral dose", "value": "25.6 (49.7) %"}, {"measurement": "ΔΔBPND Mean (SD), VSt", "setting": "[2]; 20 mg single oral dose", "value": "13.8 (14.1)* %"}, {"measurement": "ΔΔBPND Mean (SD), Ca", "setting": "[2]; 40 mg single oral dose", "value": "24.8 (26.7) %"}, {"measurement": "ΔΔBPND Mean (SD), GP", "setting": "[2]; 40 mg single oral dose", "value": "66.6 (32.4) %"}, {"measurement": "ΔΔBPND Mean (SD), Pu", "setting": "[2]; 40 mg single oral dose", "value": "36.4 (7.7) * %"}, {"measurement": "ΔΔBPND Mean (SD), SN", "setting": "[2]; 40 mg single oral dose", "value": "40.8 (58.6) %"}, {"measurement": "ΔΔBPND Mean (SD), VSt", "setting": "[2]; 40 mg single oral dose", "value": "22.6 (20.3) %"}, {"measurement": "ΔΔBPND Mean (SD), Ca", "setting": "[2]; all subjects (20 or 40 mg)", "value": "10.3 (45.9) %"}, {"measurement": "ΔΔBPND Mean (SD), GP", "setting": "[2]; all subjects (20 or 40 mg)", "value": "31.7 (44.6) %"}, {"measurement": "ΔΔBPND Mean (SD), Pu", "setting": "[2]; all subjects (20 or 40 mg)", "value": "26.4 (13.9)* %"}, {"measurement": "ΔΔBPND Mean (SD), SN", "setting": "[2]; all subjects (20 or 40 mg)", "value": "33.2 (51.8)* %"}, {"measurement": "ΔΔBPND Mean (SD), VSt", "setting": "[2]; all subjects (20 or 40 mg)", "value": "18.2 (17.1)* %"}, {"measurement": "blood-brain barrier crossing", "setting": "[2]; healthy human volunteers", "value": "readily crossed the blood-brain barrier"}, {"measurement": "modulation of dopamine release", "setting": "[2]; healthy human volunteers, 20 or 40 mg single oral dose", "value": "dose-dependent modulation of dopamine release"}, {"measurement": "deaths or serious adverse events", "setting": "[3]; phase 2", "value": "no deaths or serious adverse events"}, {"measurement": "discontinuation of study medication due to TEAEs", "setting": "[3]; phase 2", "value": "No subjects discontinued study medication due to TEAEs"}, {"measurement": "safety and tolerability", "setting": "[3]; phase 2, single doses 40 or 160 mg, add-on to antipsychotics", "value": "safe and well-tolerated"}]}]}
